Results reported in patent US20110097274A1, “Carbon-11 and fluorine-18 labeled radioligands for positron emission tomography (PET) imaging for the brain serotonin transporters” (priority 2002, published 2011).
Structures can show the parent of a compound that is named as a salt. Where two headings read alike, the source gives them in different places.

Tests used:
[1] = In vitro logP measurement, octanol/phosphate buffer pH 7.4; assay type: physicochemical; conditions: octanol/phosphate buffer pH 7.4, radiolabeled compound, mean ± SD, n = 8
Protocol: In vitro logP measurement: Octanol/water partition coefficient of the radiolabeled compounds were measured at Columbia University, using the method of Wilson et al. (2001), with some modifications. Briefly, 300 to 500 μCi of radioligand in EtOH was added to a separatory funnel containing octanol (20 mL) and phosphate buffer (20 mL, pH 7.4). The mixture was shaken mechanically for 3 minutes and the layers were separated. The octanol layer (15 mL) was transferred to a second separatory funnel containing 15 mL of the phosphate buffer (pH 7.4). The mixture was shaken mechanically for 3 minutes and the layers were separated. This second octanol layer was then partitioned into four test tubes (2 mL each) and the phosphate buffer (2 mL each) added. The test tubes were vortexed for 10 minutes, and then centrifuged for 10 minutes at 1000 rpm to separate the layers. The octanol and aqueous phases (1.0 mL each) were transferred into counting tubes and counted with a gamma counter (Wallac 1480 Wizard 3M Automatic Gamma Counter, Perkin-Elmer, Boston, Mass.). The radioactivity counts were decay-corrected and the partition coefficient calculated as P=counts in octanol/counts in buffer. Eight separate measurements were preformed for each tracer.

SERT [2] = target: T1, SERT (Rattus norvegicus, UniProt P31652); experiment: In vitro binding assay on rat frontal cortex homogenates using [^3H]paroxetine; set-up: from tissue; host or cells: frontal cortex of male Sprague-Dawley rats, washed membrane homogenate; conditions: mean ± SD, n = 3
Protocol: In vitro binding assays: Measurement of the inhibition constants (Ki) of the labeled compounds in FIG. 1 on rat frontal cortex homogenates were performed at Columbia University using [^3H]paroxetine, as previously described (Laruelle et al., 1988b). Briefly, male Sprague-Dawley rats (250-300 g) were killed by decapitation. Dissection of the brain was carried out on ice and samples of the frontal cortex were stored at −40° C. until binding assay. After thawing, samples were homogenized in 10 volumes of buffer (50 mM Tris-HCl, pH 7.4, 120 mM NaCl and 5 mM KCl). The homogenates were centrifuged at 10,000 rpm for 10 minutes. Pellets were resuspended in 10 volumes of buffer, incubated at 37° C. for 10 minutes, and centrifuged again. This procedure was then repeated a third time.
For the binding assay, membranes were suspended in buffer at a final protein concentration of 5 mg/mL. Unlabelled drugs were dissolved in dimethyl sulfoxide (DMSO) in borosilicate glass tubes to yield a 1 mM stock solution, from which subsequent serial dilutions were performed with the buffer. Aliquots of tissue preparation were incubated with [^3H]paroxetine (0.1 nM) at 22° C. or 37° C. for 60 minutes in the absence or presence of unlabelled drug (10^−5 to 10^−12 M) to yield a final volume of 0.5 mL (borosilicate glass tubes). Nonspecific binding was defined by incubation with 10 μM of citalopram. Each concentration was performed in triplicates. After incubation, the mixture was rapidly filtered through Whatman GF/B glass fiber filters using a 48-channel cell harvester (Brandel, Gaithersburg, Md.). The filters were washed 3 times with 4 mL each of ice cold buffer, placed in vials with 4 mL Ultima Gold solvent (Packard Instrument Co., Downers Grove, Ill.), and counted the following day for radioactivity in a liquid scintillation counter (Tricarb 1500, Packard Instrument Co., Downers Grove, Ill.). This experiment was performed three times at 22° C. and 37° C., on three different days. Ki values were derived using GraphPad Prism software (San Diego, Calif.).

[3] = target: T2, serotonin transporter (SERT) (Rattus norvegicus, UniProt P31652); experiment: In vitro binding affinity for SERT, radioligand [^3H]paroxetine (Table 1); set-up: species or system rat or human (cloned)
T2 construct: membranes prepared from either the rat cortical tissues or cells expressed with cloned-human transporters; from tissue; host or cells: rat cortical tissue membranes (inferred; the alternative is cells expressing cloned human SERT)
Protocol: (§1) Selected compounds were assayed in vitro for their binding affinity for the dopamine transporter (DAT), serotonin transporter (SERT), and norepinephrine transporter (NET) using membranes prepared from either the rat cortical tissues or cells expressed with cloned-human transporters and radioligands. Radioligands used were [^3H]paroxetine (SERT), [^3H]nisoxetine (NET), and [^3H]GBR12935 (DAT).

[4] = target: T3, dopamine transporter (DAT) (Homo sapiens, UniProt Q01959); experiment: In vitro binding affinity for DAT, radioligand [^3H]GBR12935 (Table 1); set-up: species or system rat or human (cloned)
T3 construct: host or cells: either rat cortical tissue or cells expressing the cloned human transporter
Protocol: as §1

[5] = target: T4, norepinephrine transporter (NET) (Homo sapiens, UniProt P23975); experiment: In vitro binding affinity for NET, radioligand [^3H]nisoxetine (Table 1); set-up: species or system rat or human (cloned)
T4 construct: host or cells: either rat cortical tissue or cells expressing the cloned human transporter
Protocol: as §1

SERT [6] = target: T1, SERT; set-up: host or cells: rat brain membranes (for ADAM/IDAM); conditions: literature; [^125I] ligands in rat brain membranes; cited from earlier work
[7] = humans, literature; cited from earlier work
SERT [8] = conditions: literature; cited from earlier work
[9] = literature (Laruelle et al., 1994a); cited from earlier work
[10] = 22° C., read-out: Ki for SERT at 22° C.
[11] = 37° C., read-out: Ki for SERT at 37° C.

T1 sequence (P31652 whole entry): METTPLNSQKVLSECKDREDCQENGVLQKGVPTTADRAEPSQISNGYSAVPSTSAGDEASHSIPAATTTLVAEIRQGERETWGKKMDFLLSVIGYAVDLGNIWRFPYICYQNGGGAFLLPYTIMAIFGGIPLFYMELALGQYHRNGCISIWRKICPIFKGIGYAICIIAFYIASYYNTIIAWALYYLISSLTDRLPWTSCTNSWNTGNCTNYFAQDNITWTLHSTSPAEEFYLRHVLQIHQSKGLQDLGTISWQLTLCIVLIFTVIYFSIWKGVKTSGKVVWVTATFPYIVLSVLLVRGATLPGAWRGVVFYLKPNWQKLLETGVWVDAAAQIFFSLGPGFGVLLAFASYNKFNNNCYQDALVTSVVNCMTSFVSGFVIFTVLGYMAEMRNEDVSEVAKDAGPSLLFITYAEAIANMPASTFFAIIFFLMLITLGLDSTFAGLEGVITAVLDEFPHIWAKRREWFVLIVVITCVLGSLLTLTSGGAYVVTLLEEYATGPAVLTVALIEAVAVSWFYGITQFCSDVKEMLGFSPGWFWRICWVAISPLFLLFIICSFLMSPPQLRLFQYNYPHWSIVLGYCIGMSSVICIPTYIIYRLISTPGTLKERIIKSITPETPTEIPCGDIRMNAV
T2 sequence (P31652 whole entry): as above
T3 sequence (Q01959 whole entry, species assumed): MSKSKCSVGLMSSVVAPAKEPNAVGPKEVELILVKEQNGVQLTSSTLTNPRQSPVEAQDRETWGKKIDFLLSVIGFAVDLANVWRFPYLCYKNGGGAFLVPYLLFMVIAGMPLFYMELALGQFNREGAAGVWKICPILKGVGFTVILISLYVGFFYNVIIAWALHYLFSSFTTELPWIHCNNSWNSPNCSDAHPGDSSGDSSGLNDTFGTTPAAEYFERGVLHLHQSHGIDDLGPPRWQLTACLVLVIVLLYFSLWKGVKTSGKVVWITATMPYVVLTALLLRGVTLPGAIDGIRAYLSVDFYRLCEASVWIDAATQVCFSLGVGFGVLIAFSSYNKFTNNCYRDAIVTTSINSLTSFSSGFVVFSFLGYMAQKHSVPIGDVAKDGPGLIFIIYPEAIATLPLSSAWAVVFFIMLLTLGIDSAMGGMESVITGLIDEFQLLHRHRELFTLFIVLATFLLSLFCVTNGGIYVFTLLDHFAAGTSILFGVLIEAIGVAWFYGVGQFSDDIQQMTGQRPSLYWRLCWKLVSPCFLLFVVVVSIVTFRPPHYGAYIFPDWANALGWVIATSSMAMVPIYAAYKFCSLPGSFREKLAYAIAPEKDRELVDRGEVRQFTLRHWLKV
T4 sequence (P23975 whole entry, species assumed): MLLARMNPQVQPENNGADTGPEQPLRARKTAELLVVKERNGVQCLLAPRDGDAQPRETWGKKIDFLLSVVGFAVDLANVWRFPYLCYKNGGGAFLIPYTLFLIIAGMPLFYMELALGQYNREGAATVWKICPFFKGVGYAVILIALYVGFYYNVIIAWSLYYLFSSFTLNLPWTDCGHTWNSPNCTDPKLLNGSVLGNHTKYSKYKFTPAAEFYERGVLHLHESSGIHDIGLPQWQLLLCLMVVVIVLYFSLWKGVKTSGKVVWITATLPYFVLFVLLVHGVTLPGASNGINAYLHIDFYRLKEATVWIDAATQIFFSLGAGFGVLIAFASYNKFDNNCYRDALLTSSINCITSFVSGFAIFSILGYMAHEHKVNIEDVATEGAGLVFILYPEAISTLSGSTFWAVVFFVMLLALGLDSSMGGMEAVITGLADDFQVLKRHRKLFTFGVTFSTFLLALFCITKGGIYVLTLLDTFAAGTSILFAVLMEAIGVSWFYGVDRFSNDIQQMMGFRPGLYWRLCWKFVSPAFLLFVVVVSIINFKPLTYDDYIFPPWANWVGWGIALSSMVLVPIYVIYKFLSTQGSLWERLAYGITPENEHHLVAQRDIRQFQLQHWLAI

**Q.** Which melting point does the source give for `CN(C)Cc1ccccc1Sc1ccc(F)cc1N` (as salt: tartrate) [AFA, 2-(2-(Dimethylaminomethyl)phenylthio)-5-fluorophenylamine] here?
**A.** 158 to 159 °C

**Q.** With `CN(C)Cc1ccccc1Sc1ccc(Br)cc1N` [DAPA, 5-bromo-2-{2[(dimethylamino)methyl]phenylthio}phenylamine] as the molecule, how does the logP [1] read?
**A.** 3.06 ± 0.12

**Q.** And the Ki (SERT [2]; [10])?
**A.** 0.38 ± 0.24 nM

**Q.** And the Ki (SERT [2]; [11])?
**A.** 0.33 ± 0.13 nM

**Q.** With `CSc1ccc(C2CN3CCCC3c3ccccc32)cc1` (single isomer, unassigned; (+)) [McN 5652, (+)-6β-(4-methylthiophenyl)-1,2,3,5,6α,10β-hexahydropyrrolo[2,1-a]isoquinoline] as the molecule, how does the logP [1] read?
**A.** 2.51 ± 0.03

**Q.** Which Ki [3] does the source give for `CN(C)Cc1ccccc1Sc1ccc(I)cc1N` [ADAM, 2-{2-[(dimethylamino)methyl]phenylthio}-5-iodophenylamine] here?
**A.** 0.32 nM

**Q.** And the Ki [4]?
**A.** > 10000 nM

**Q.** What about the Ki [5] of the same molecule?
**A.** 1350 nM

**Q.** And the logP [1]?
**A.** 3.31 ± 0.13

**Q.** What about the Ki (SERT [6]) of the same molecule?
**A.** 0.15 nM

**Q.** What about the Ki (SERT [2]; [10]) of the same molecule?
**A.** 0.32 ± 0.11 nM

**Q.** And the Ki (SERT [2]; [11])?
**A.** 0.4 ± 0.16 nM

**Q.** With `CNCc1ccccc1Sc1ccc(C)cc1N` (as salt: tartrate) [Example 39, 5-Methyl-2-(2-(methylaminomethyl)phenylthio)phenylamine] as the molecule, how does the melting point read?
**A.** 164 to 166 °C

**Q.** For `COc1c(O[11CH3])cccc1[C@H](O)C1CCN(CCc2ccc(F)cc2)CC1` [[^11C]MDL 100907], which “VT CER (nonspecific distribution volume)” value [7] is on record?
**A.** 18 ± 4 mL/g

**Q.** With `CN(C)Cc1ccccc1Sc1ccc(I)cc1CO` [[^123I]IDAM, 5-iodo-2-((2-((dimethylamino)methyl)phenyl)thio)benzyl alcohol] as the molecule, how does the Kd (SERT [8]) read?
**A.** 0.25 nM

**Q.** Which Plasma free fraction [9] does the source give for `COC(=O)C1C(c2ccc([123I])cc2)CC2CCC1N2C` (stereo not drawn) [[^123I]β-CIT, [^123I]2β-carbomethoxy-3β-(4-iodophenyl)tropane] here?
**A.** 40±5%

**Q.** What about the “VT CER (nonspecific distribution volume)” value [7] of the same molecule?
**A.** 28 ± 3 mL/g

**Q.** Which Ki (SERT [6]) does the source give for `CN(C)Cc1ccccc1Sc1ccc(I)cc1CO` [[^125I]IDAM] here?
**A.** 0.25 nM

**Q.** What does the source list for `CN(C)Cc1ccccc1Sc1ccc(C#N)cc1N` [DASB, 3-amino-4-{2-[(dimethylamino)methyl]phenylthio}benzonitrile]?
**A.** Ki ([3]; read-out: Ki SERT): 0.87 nM; Ki [4]: > 10000 nM; logP [1]: 2.38 ± 0.03; Ki (SERT [2]; [10]): 0.87 ± 0.41 nM; Ki (SERT [2]; [11]): 1.77 ± 0.25 nM

**Q.** With `CNCc1ccccc1Sc1ccc(F)cc1N` (as salt: tartrate) [Example 41, 5-Fluoro-2-(2-(methylaminomethyl)phenylthio)phenylamine] as the molecule, how does the melting point read?
**A.** 106 to 108 °C

**Q.** With `CN(C)Cc1ccccc1Sc1ccc(CF)cc1N` (as salt: tartrate) [AFM, 2-(2-(Dimethylaminomethyl)phenylthio)-5-fluoromethylphenylamine] as the molecule, how does the melting point read?
**A.** 142 to 143 °C

**Q.** For `CN(C)Cc1ccccc1Sc1ccc([125I])cc1N` [[^125I]ADAM], which Ki (SERT [6]) is on record?
**A.** 0.15 nM

**Q.** What does the source list for `CN(C)Cc1ccccc1Sc1ccc(CF)cc1N` [AFM, 2-(2-(Dimethylaminomethyl)phenylthio)-5-fluoromethylphenylamine]?
**A.** Ki [3]: 0.23 nM; Ki [4]: > 10000 nM; Ki [5]: 664 nM; logP [1]: 2.44 ± 0.03; Ki (SERT [2]; [10]): 0.23 ± 0.04 nM; Ki (SERT [2]; [11]): 0.42 ± 0.12 nM
